From patent US12195490B2, “STRAD-binding agents and uses thereof” (The Regents of the University of California, priority 2020, dated 2025)

tested on: ACHN cell line; experiment: drug screen of the SelleckChem kinase inhibitor library with and without 5 uM SU-329, Cell-Titer Glo after 5 days; format: cell-based; conditions: not given

| Compound | log2fc |
| --- | --- |
| CHIR-98014 | 3.928 |

same assay, conditions: kinase inhibitor at 200 nM with and without 5 uM SU329; ACHN cell line; 5 days; Cell-Titer Glo

| Compound | log2fc |
| --- | --- |
| OCCn1cc(-c2ccc3c(c2)CC/C3=N\O)c(-c2ccncc2)n1 [GDC-0879] | 0.3592 |
| CC(C)(C)c1cc(C=C(C#N)C#N)cc(Br)c1O [AG-1024] | −0.3636 |
| Cn1c(Nc2ccc(C(F)(F)F)cc2)nc2cc(Oc3ccnc(-c4ncc(C(F)(F)F)[nH]4)c3)ccc21 [RAF265 (CHIR-265)] | 0.9001 |
| CCOc1ccn(-c2ccc(F)cc2)c(=O)c1C(=O)Nc1ccc(Oc2ccnc(N)c2Cl)c(F)c1 [BMS-777607] | −0.5095 |
| CCn1c(-c2nonc2N)nc2c(C#CC(C)(C)O)ncc(OC[C@H]3CCCNC3)c21 [GSK690693] | −0.5999 |
| COc1cc2ncnc(Nc3ccc(Cl)cc3F)c2cc1OC [ZM 306416] | 0.5807 |
| COc1ncc(-c2ccc3nccc(-c4ccnnc4)c3c2)cc1NS(=O)(=O)c1ccc(F)cc1F [Omipalisib (GSK2126458, GSK458)] | 0.5342 |
| O=C(NCCCNc1nc(Nc2cccc(NC(=O)N3CCCC3)c2)ncc1I)c1cccs1 [BX-795] | −0.3476 |
| CCN(CC)CCNC(=O)c1c(C)[nH]c(/C=C2\C(=O)Nc3ccc(F)cc32)c1C [Sunitinib Malate, sunitinib, reference compound] | −0.1249 |
| C=CC(=O)Nc1cc(Nc2nccc(-c3cn(C)c4ccccc34)n2)c(OC)cc1N(C)CCN(C)C [Osimertinib (AZD9291)] | −0.01286 |
| N#Cc1ccc2[nH]c(O)c(-c3ccc(CN4CCOCC4)cn3)c2c1 [AZD1080] | 1.953 |
| O=C(c1ccc(/C=C/c2n[nH]c3ccccc23)cc1)N1CCNCC1 [KW-2449] | −0.0564 |
| O=c1cc(N2CCOCC2)oc2c(-c3ccccc3)cccc12 [LY294002] | 0.5337 |
| O=c1c(O)c(-c2ccc(O)c(O)c2)oc2cc(O)cc(O)c12 [Quercetin] | −0.449 |
| O=c1sn(-c2cccc3ccccc23)c(=O)n1Cc1ccccc1 [Tideglusib] | −0.007073 |
| NC(=O)Nc1sc(-c2ccc(F)cc2)cc1C(N)=O [TPCA-1] | −0.08928 |
| CCCCCCCCc1ccc(CCC(N)(CO)CO)cc1.Cl [Fingolimod (FTY720) HCl] | 0.7051 |
| COc1cc2nccc(Oc3ccc(NC(=O)C4(C(=O)Nc5ccc(F)cc5)CC4)cc3)c2cc1OC.O=C(O)C[C@H](O)C(=O)O [Cabozantinib malate (XL184)] | 0.5713 |
| Oc1ccc(Nc2nc(-c3ccc(Cl)cc3)cs2)cc1 [SKI II] | 0.06564 |
| O=c1ccc2ccc(O)c(O)c2o1 [Daphnetin] | 0.08794 |
| Cn1sc(=O)n(Cc2ccccc2)c1=O [TDZD-8] | 0.1552 |
| Cl.O=S(=O)(c1cccc2cnccc12)N1CCCNCC1 [Fasudil (HA-1077) HCl] | 0.1457 |
| CC(C)c1cnn2c(NCc3ccccc3)cc(NCCCCCCN)nc12.Cl [BS-181 HCl] | 0.09476 |
| CCN(CCO)CCCOc1ccc2c(Nc3cc(CC(=O)Nc4cccc(F)c4)[nH]n3)ncnc2c1 [Barasertib (AZD1152-HQPA)] | 0.7387 |

| Compound | log2fc |
| --- | --- |
| CCN1CCN(Cc2ccc(Nc3ncc(F)c(-c4cc(F)c5nc(C)n(C(C)C)c5c4)n3)nc2)CC1 [abemaciclib (LY2835219)] | 0.1618 |
| Cn1cc(C2=C(c3ccc(Cl)cc3Cl)C(=O)NC2=O)c2ccccc21 [SB216763] | 0.4708 |
| CC(=O)Nc1nc(C)c(-c2ccc(Cl)c(S(=O)(=O)NCCO)c2)s1 [PIK-93] | 0.3162 |
| CC(C)(C)c1ccc(S(=O)(=O)/C=C/C#N)cc1 [Bay 11-7085] | 0.004153 |
| O=C(O)c1ccc(Nc2ncc3c(n2)-c2ccc(Cl)cc2C(c2c(F)cccc2F)=NC3)cc1 [MLN8054] | 0.07059 |
| Cn1cc(-c2ccc3ncc(Cc4ccc5ncccc5c4)n3n2)cn1 [NVP-BVU972] | 0.5846 |
| COc1ccc(-c2ccc3c(N4CCOCC4)nc(N4C[C@@H](C)O[C@@H](C)C4)nc3n2)cc1CO [KU-0063794] | −1.551 |
| CN1CCC(CNc2ccc3ncc(-c4cccc(OC(F)(F)F)c4)n3n2)CC1 [SGI-1776 free base] | −0.0254 |
| Cc1ccc(NC(=O)c2cccc(N(C)C)c2)cc1NC(=O)c1ccc(O)cc1 [ZM 336372] | 0.2177 |
| GZD824 Dimesylate | 1.434 |
| SNS-314 Mesylate | 0.4469 |
| COCC(=O)NC/C=C/c1ccc2ncnc(Nc3ccc(Oc4ccc(C)nc4)c(C)c3)c2c1 [CP-724714, reference compound] | 0.2836 |
| Cc1cc(Nc2cc(N3CCN(C)CC3)nc(Sc3ccc(NC(=O)C4CC4)cc3)n2)n[nH]1 [Tozasertib (VX-680, MK-0457)] | 0.9265 |
| CO[C@@H](C(=O)N1Cc2[nH]nc(NC(=O)c3ccc(N4CCN(C)CC4)cc3)c2C1)c1ccccc1 [Danusertib (PHA-739358)] | −0.1537 |
| Cc1nc(Nc2cnn(C3CCNCC3)c2)nc2c1N(C)C(=O)c1cc3ccccc3cc1N2C [HTH-01-015] | 0.3141 |
| CSc1cccc(Nc2ncc3cc(-c4c(Cl)cccc4Cl)c(=O)n(C)c3n2)c1 [PD173955] | −0.1932 |
| C[C@@H]1CCN(C(=O)CC#N)C[C@@H]1N(C)c1ncnc2[nH]ccc12 [Tofacitinib (CP-690550, Tasocitinib)] | 0.6421 |
| C[C@H](Nc1ncnc2nc[nH]c12)c1cc2cccc(Cl)c2c(=O)n1-c1ccccc1 [Duvelisib (IPI-145, INK1197)] | −0.2128 |
| Cc1cnc(-c2cnc(NCCNc3ccc(C#N)cn3)nc2-c2ccc(Cl)cc2Cl)[nH]1.Cl [CHIR-99021 (CT99021) HCl] | 0.9577 |
| Nc1nc(Nc2ccc(S(N)(=O)=O)cc2)nn1C(=O)c1c(F)cccc1F [JNJ-7706621] | 0.3857 |
| C[C@@H]1CCN(C(=O)CC#N)C[C@@H]1N(C)c1ncnc2[nH]ccc12.O=C(O)CC(O)(CC(=O)O)C(=O)O [Tofacitinib (CP-690550) Citrate] | 0.3512 |
| N#Cc1c(NC(=O)c2cccc3ccccc23)sc2c1CCCC2 [JNK Inhibitor IX] | 0.1814 |
| CO[C@H]1C[C@@H]2CC[C@@H](C)[C@@](O)(O2)C(=O)C(=O)N2CCCC[C@H]2C(=O)O[C@H]([C@H](C)C[C@@H]2CC[C@@H](O)[C@H](OC)C2)CC(=O)[C@H](C)/C=C(\C)[C@@H](O)[C@@H](OC)C(=O)[C@H](C)C[C@H](C)/C=C/C=C/C=C/1C [Rapamycin (Sirolimus)] | −1.552 |
| N#C/C(=C/c1ccc(O)c(O)c1)C(=O)NCc1ccccc1 [AG-490 (Tyrphostin B42), AG-490, reference compound] | −0.01509 |

| Compound | log2fc |
| --- | --- |
| CC(C)(C)c1cc(NC(=O)Nc2ccc(-c3cn4c(n3)sc3cc(OCCN5CCOCC5)ccc34)cc2)no1 [Quizartinib (AC220)] | 0.278 |
| Cc1cc(C)c(/C=C2\C(=O)Nc3ccccc32)[nH]1 [Semaxanib (SU5416)] | −0.8277 |
| CC(C)(C)c1cc(/C=C(\C#N)C(N)=S)cc(C(C)(C)C)c1O [Tyrphostin AG 879] | 0.3391 |
| Cc1cc(N2CCOCC2)cc2[nH]c(-c3c(NC[C@@H](O)c4cccc(Cl)c4)cc[nH]c3=O)nc12 [BMS-536924] | 0.4161 |
| COc1ccc(-c2ccc3ncc4c(c3c2)n(-c2ccc(N3CCNCC3)c(C(F)(F)F)c2)c(=O)n4C)cn1 [BGT226 (NVP-BGT226)] | −0.4638 |
| Cc1cnc(-c2cnc(NCCNc3ccc(C#N)cn3)nc2-c2ccc(Cl)cc2Cl)[nH]1 [CHIR-99021 (CT99021)] | 1.316 |
| C[C@@H]1COCCN1c1cc(C2(S(C)(=O)=O)CC2)nc(-c2cccc3[nH]ccc23)n1 [AZ20] | −0.01528 |
| Cc1c(NC(=O)OC[C@@H]2COCCN2)cn2ncnc(Nc3ccc4c(cnn4Cc4cccc(F)c4)c3)c12 [AC480 (BMS-599626)] | 0.6806 |
| COc1ccc(-c2ccc3c(N4CCOC[C@@H]4C)nc(N4CCOC[C@@H]4C)nc3n2)cc1CO [AZD8055] | 0.1024 |
| CC(C)CCN1c2nc(Nc3cc(F)c(O)c(F)c3)ncc2N(C)C(=O)C1C (stereo not shown) [BI-D1870] | 0.7499 |
| O=C(NOCC(O)CO)c1cc(Br)c(F)c(F)c1Nc1ccc(I)cc1F (stereo not shown) [PD318088] | 0.4184 |
| O=c1c(-c2ccc(O)cc2)coc2cc(O)cc(O)c12 [Genistein] | 0.05262 |
| CN(C)C/C=C/C(=O)Nc1cc2c(Nc3ccc(F)c(Cl)c3)ncnc2cc1O[C@H]1CCOC1 [Afatinib (BIBW2992), afatinib, reference compound] | 0.04313 |
| C[C@@H](Oc1cc(-n2cnc3ccc(CN4CCN(C)CC4)cc32)sc1C(N)=O)c1ccccc1C(F)(F)F [GSK461364] | 0.9925 |
| CNC(=O)c1ccc(C)c(-n2c(C)cc(OCc3ccc(F)cc3F)c(Br)c2=O)c1 [PH-797804] | −0.5678 |
| N#CC[C@H](C1CCCC1)n1cc(-c2ncnc3[nH]ccc23)cn1 [Ruxolitinib (INCB018424)] | −0.1253 |
| CC(C)CC(=O)Nc1n[nH]c2c1CN(C(=O)C1CCN(C)CC1)C2(C)C [PHA-793887] | −0.1187 |
| Cc1cc(Nc2ncc(Cl)c(Nc3ccccc3S(=O)(=O)C(C)C)n2)c(OC(C)C)cc1C1CCNCC1 [Ceritinib (LDK378)] | 0.2988 |
| Clc1ccc(C2(c3ccc(-c4cn[nH]c4)cc3)CCNCC2)cc1 [AT7867] | −0.935 |
| Cn1cc(C2=C(c3cn(C4CCN(Cc5ccccn5)CC4)c4ccccc34)C(=O)NC2=O)c2ccccc21 [Enzastaurin (LY317615)] | 0.5814 |
| Cc1cc2c(F)c(Oc3ncnn4cc(OC[C@@H](C)OC(=O)[C@H](C)N)c(C)c34)ccc2[nH]1 [Brivanib Alaninate (BMS-582664)] | 0.04321 |
| O=C(/C=C/c1ccc2ccccc2n1)c1ccncc1 [PFK15] | −0.9312 |
| CN1CCN(CCOc2cc(OC3CCOCC3)c3c(Nc4c(Cl)ccc5c4OCO5)ncnc3c2)CC1 [Saracatinib (AZD0530)] | 0.4009 |
| CCn1c2ccccc2c2cc(Nc3ccnc(NCCCN4CCOCC4)n3)ccc21 [EHop-016] | 0.1156 |
